Results published in PMC9127750, “Structure-based design of CDC42 effector interaction inhibitors for the treatment of cancer” (Cell reports, 2022).
Where “and” joins values, the source holds several entries; their conditions need not be identical. Equal values may be shown once.

Tested on: WM3248 melanoma cells, 486 antibodies
Test: Reverse phase protein arrays (RPPA)
Assay type: cell-based, Human
Text: Pellets were snap frozen in liquid nitrogen and shipped to MD Anderson Cancer Center core RPPA facility for RPPA analysis (Table S5). Three biological replicates for each sample were generated.
Nomenclatures on the RPPA heatmaps: name_of_antibody.species_of_antibody.status_of_antibody. V - antibody validated; C - validation of antibody in progress; Q - antibody nonspecific; E – under evaluation; antibodies raised in M - mouse, G - goat, R - rabbit, or T - rat.

[1] = 20, replicates 1-3, normalized to 0
[2] = Norm_5: replicates 1-3 and Average, relative to 0

## CN(C)c1cccc(Nc2cc(-c3ccccc3)nc(C3CCNCC3)n2)c1 [ARN22089, N1,N1-dimethyl-N3-(6-phenyl-2-(piperidin-4-yl)pyrimidin-4-yl)benzene-1,3-diamine]
20, average, normalized to 0
  HER2.M.V Norm_20 Average: 0.995
  HER2_pY1248.R.V Norm_20 Average: 1.030
  HER3.R.V Norm_20 Average: 0.904
  HER3_pY1289.R.C Norm_20 Average: 1.084
  Heregulin.R.V Norm_20 Average: 1.046
  eEF2.R.C Norm_20 Average: 1.639
  eEF2K.R.V Norm_20 Average: 1.409
  eIF4E.R.V Norm_20 Average: 1.114
  eIF4G.R.C Norm_20 Average: 1.165
[1]
  DNMT1.R.V Norm_20: 0.937 and 0.801
  DRP1.R.V Norm_20: 1.019 and 0.894 and 0.979
  DUSP4.R.V Norm_20: 0.537 and 0.626 and 1.006
  DUSP6.R.C Norm_20: 1.405 and 1.064 and 2.195
  DYRK1B.R.C Norm_20: 0.868 and 0.959 and 0.907
  Dvl3.R.V Norm_20: 0.990 and 1.118 and 0.985
  E2F1.R.V Norm_20: 1.446 and 1.251
  E.Cadherin.R.V Norm_20: 0.696 and 0.873 and 0.994
  EGFR.R.V Norm_20: 1.083 and 1.189 and 1.125
  EGFR_pY1068.R.C Norm_20: 0.892 and 0.889 and 0.961
  EGFR_pY1173.R.V Norm_20: 1.079 and 1.019 and 1.046
  EMA.M.C Norm_20: 0.566 and 0.868 and 0.914
  ENY2.M.C Norm_20: 0.866 and 0.944 and 1.047
  ER.a.R.V Norm_20: 0.939 and 0.862 and 1.078
  ER.a_pS118.R.V Norm_20: 1.167 and 1.838 and 0.928
  ERCC1.R.C Norm_20: 0.964 and 0.974
  ERCC5.R.C Norm_20: 1.290 and 0.989 and 1.051
  ERRalpha.R.V Norm_20: 0.831 and 1.056 and 1.002
  EVI1.R.V Norm_20: 0.975 and 0.917
  Enolase.1.R.V Norm_20: 1.030 and 1.152
  Enolase.2.R.V Norm_20: 0.990 and 0.970 and 0.883
  EphA2.R.V Norm_20: 0.706 and 0.773 and 0.765
  EphA2_pS897.R.C Norm_20: 0.536 and 0.635 and 0.720
  EphA2_pY588.R.C Norm_20: 0.930 and 1.018 and 0.973
  Erk5.R.V Norm_20: 0.948 and 0.789 and 1.013
  Ets.1.R.V Norm_20: 1.373 and 1.347 and 1.417
  FABP5.R.C Norm_20: 1.102 and 1.223 and 1.428
  FAK.R.C Norm_20: 0.837 and 0.917
  FAK_pY397.R.V Norm_20: 0.847 and 0.989 and 0.940
  FANCD2.R.V Norm_20: 0.831 and 0.901 and 0.823
  FASN.R.V Norm_20: 0.802 and 0.983
  FGF.basic.R.C Norm_20: 0.939 and 0.836 and 1.240
  FN14.R.C Norm_20: 1.082 and 0.902 and 1.335
  FOXM1.R.V Norm_20: 0.995 and 0.889 and 0.924
  FOXO3.R.V Norm_20: 1.160 and 1.151 and 0.915
  FRS2.alpha_pY196.R.V Norm_20: 0.925 and 1.195 and 1.058
  FTO.R.V Norm_20: 0.992
  Fibronectin.R.V Norm_20: 1.153 and 1.290 and 1.137
  FoxO3a_pS318_S321.R.C Norm_20: 1.105 and 0.940
  G6PD.R.V Norm_20: 0.877 and 1.061 and 0.923
  GATA3.M.V Norm_20: 1.203 and 1.452 and 1.301
  GATA6.R.V Norm_20: 0.945 and 0.991 and 0.928
  GCLC.R.C Norm_20: 0.882 and 0.967 and 1.220
  GCLM.R.V Norm_20: 0.988 and 1.024 and 0.965
  GCN5L2.R.V Norm_20: 0.974 and 0.944
  GGPS1.M.V Norm_20: 0.920 and 0.992 and 1.155
  GRB2.R.V Norm_20: 0.992 and 0.862 and 0.948
  GRB7.R.V Norm_20: 0.909 and 0.898
  GSK.3B.R.C Norm_20: 0.896 and 0.924
  GSK.3a.b.M.V Norm_20: 0.918 and 0.992
  GSK.3a.b_pS21_S9.R.V Norm_20: 1.411 and 1.207
  Gab2.R.V Norm_20: 1.447 and 1.019
  Gli1.R.C Norm_20: 0.898 and 0.922 and 1.028
  Gli3.R.C Norm_20: 1.237 and 1.346 and 1.321
  Glucocorticoid.Receptor.R.V Norm_20: 1.227 and 1.295 and 0.987
  Glutamate.D1.2.R.V Norm_20: 1.198
  Glutaminase.R.C Norm_20: 1.026 and 1.144 and 1.364
  Granzyme.B.R.V Norm_20: 1.284 and 1.028
  Grp75.R.C Norm_20: 1.594 and 1.052 and 0.939
  Gys.R.V Norm_20: 0.807 and 0.941 and 1.104
  Gys_pS641.R.V Norm_20: 0.671 and 0.818 and 1.079
  H2AX_pS139.R.C Norm_20: 1.188 and 2.081 and 1.030
  H2AX_pS140.M.C Norm_20: 1.001 and 1.667 and 1.028
  HER2.M.V Norm_20: 0.977 and 0.952 and 1.056
  HER2_pY1248.R.V Norm_20: 0.902 and 1.119
  HER3.R.V Norm_20: 0.864 and 0.935 and 0.913
  HER3_pY1289.R.C Norm_20: 1.059 and 1.124
  HES1.R.V Norm_20: 1.224 and 0.849 and 1.063
  Heregulin.R.V Norm_20: 1.048 and 1.050
  eEF2.R.C Norm_20: 1.328 and 1.602 and 1.986
  eEF2K.R.V Norm_20: 1.469 and 1.590 and 1.169
  eIF4E.R.V Norm_20: 1.107 and 0.843 and 1.392
  eIF4E_pS209.R.V Norm_20: 0.954 and 0.835 and 1.321
  eIF4G.R.C Norm_20: 1.493 and 1.003 and 0.999
Norm_5, normalized to Norm_0
  MYH11.R.C Average: 1.033
  Myosin.IIa.R.C Average: 0.991
  Myosin.IIa_pS1943.R.V Average: 0.992
  Myt1.R.C Average: 1.030
  N.Cadherin.R.V Average: 0.967
  N.Ras.M.V Average: 0.979
  NDRG1_pT346.R.V Average: 1.270
  NDUFB4.R.V Average: 0.954
  NRF2.R.C Average: 1.024
  Notch1.R.V Average: 0.893
  Notch1.cleaved.R.V Average: 1.048
  Notch3.R.C Average: 0.987
  Oct.4.R.C Average: 1.097
  P.Cadherin.R.C Average: 1.185
  PAI.1.M.V Average: 0.899
  PAICS.R.C Average: 0.934
  PAK1.R.V Average: 0.952
  PAK4.R.V Average: 0.942
  PAK_pS474_S602_S560.R.V Average: 0.943
  PAK_pT423_T402.R.C Average: 0.942
  PAR.R.C Average: 2.806
  PARG.R.C Average: 1.053
  PAX6.R.V Average: 0.980
  PAX8.R.C Average: 0.929
  PCNA.M.C Average: 0.930
  PD.1.R.V Average: 0.933
  PD.L1.R.C Average: 1.049
  PDH.M.V Average: 0.971
  PDHA1.R.V Average: 1.000
  PDHK1.R.C Average: 1.047
  PDK1.R.V Average: 1.053
  PDK1_pS241.R.V Average: 1.123
  PEA.15.R.V Average: 0.989
  PEA.15_pS116.R.V Average: 0.945
  PERK.R.V Average: 0.967
  PGM1.R.V Average: 1.019
  PHLPP.R.V Average: 1.011
  PI3K.p85.R.C Average: 0.931
  PI3K.p110.a.R.C Average: 1.007
  PI3K.p110.b.M.C Average: 0.980
  PKA.a.R.V Average: 1.083
  PKC.a.b.II_pT638_T641.R.V Average: 0.910
  PKC.b.II_pS660.R.V Average: 1.083
  PKCa.R.V Average: 1.160
  PLC.gamma1.R.V Average: 1.065
  PLC.gamma1_pS1248.R.V Average: 1.197
  PLC.gamma2_pY759.R.V Average: 0.941
  PLK1.R.C Average: 0.892
  PMS2.R.V Average: 0.916
  PR.R.V Average: 0.959
  PRAS40.M.C Average: 0.988
  PRC1_pT481.R.C Average: 0.915
  Patched.R.C Average: 1.046
  Paxillin.R.C Average: 1.013
  Pdcd4.R.C Average: 1.126
  Porin.M.V Average: 0.959
  p21.R.C Average: 0.958
  p27.Kip1.R.C Average: 0.986
  p27_pT157.R.C Average: 1.081
  p27_pT198.R.V Average: 1.051
  p38.MAPK._pT180_Y182.R.V Average: 1.202
  p38.a.M.V Average: 0.984
  p44.42.MAPK.R.V Average: 1.160
  p53.R.C Average: 1.083
  p70.S6K1.R.V Average: 1.109
  p90RSK_pT573.R.C Average: 0.871
[2]
  PREX1.R.V normalized RPPA signal: 1.167 and 1.060 and 1.135 and 1.121
  PTEN.R.V normalized RPPA signal: 1.061 and 1.012 and 1.047
  PTPN12.R.V normalized RPPA signal: 1.010 and 0.988 and 1.023
  PYGB.R.V normalized RPPA signal: 1.017 and 1.164 and 0.766 and 0.982
  PYGM.M.C normalized RPPA signal: 0.997 and 1.153 and 0.846 and 0.999
  Puma.R.C normalized RPPA signal: 1.064 and 1.136 and 0.836 and 1.012
  Pyk2_pY402.R.C normalized RPPA signal: 1.133 and 1.024 and 1.065
  RBM15.R.V normalized RPPA signal: 0.984 and 1.128
  RIP3.R.C normalized RPPA signal: 1.061 and 1.027 and 1.055 and 1.048
  RIP.R.C normalized RPPA signal: 0.916 and 0.977 and 0.799 and 0.897
  RPA32.R.V normalized RPPA signal: 1.150 and 0.846 and 1.011
  RPA32_pS4_S8.R.C normalized RPPA signal: 1.171 and 1.234 and 0.878
  RRM1.R.C normalized RPPA signal: 0.936 and 0.952 and 0.975
  RRM2.R.C normalized RPPA signal: 0.907 and 1.001 and 0.922 and 0.943
